Molecules are shown by their SMILES. Some results are limits rather than exact numbers.

Consider three compounds from US6924278B2, “Aroyl-piperazine derivatives, their preparation and their use as tachykinin antagonists” (Fujisawa Pharmaceutical Co., Ltd., priority 1997, dated 2005).

One series deals with emesis in the ferret. In words: Emesis in the ferret (copper sulfate-induced retching and vomiting). The format is in vivo. The note with it: dose of 1.0 mg/kg i.v., 30 min before intra-gastric copper sulfate (40 mg/kg/ml), observed for the next 30 min. The method, then:
Individually housed adult male ferrets (Marshall Farms, 1.4 to 2.2 kg) were given an i.v. injection of a solution contatining a test compound. 30 Min later the emetic responses (retching and vomiting) were induced by administration of intra-gastric copper sulfate (40 mg/kg/ml) and observed for the next 30 min. The timing and number of retches and vomits observed were recorded for each animal. An individual animal was tested with at least 10 days between experiments.

A further series concerns the target T1, h-NK1 receptors (Homo sapiens, UniProt P25103).
T1 construct: expressed in transfected cells; host or cells: CHO cells (permanent expression), crude cell membranes
The experiment in a line: Evaluation of NK1 antagonist transport efficiency to the central nervous system using a h-NK1 receptor binding assay (brain extract after i.v. dosing of rats). To be noted: 5 min; compound extracted from brain of male SD rats 5 min after i.v. injection at the dose of 1 mg/kg; CHO cell membranes expressing h-NK1; read-out: inhibition rate of 125I-BH-Substance P binding to h-NK1 receptors. Summed up:
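Male SD rats received 1 mg/kg i.v.; 5 min later brains were perfused, homogenized and extracted with ethyl acetate, and the extract was redissolved in DMSO. Extracts were tested against 0.1 nM ^125I-BH-Substance P on h-NK1 CHO membranes (6 μg/ml), pH 7.4 Tris/MnCl2, 90 min at 22° C. Filtration readout; specific binding defined by 3 μM unlabeled Substance P.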

T1 sequence (P25103 whole entry): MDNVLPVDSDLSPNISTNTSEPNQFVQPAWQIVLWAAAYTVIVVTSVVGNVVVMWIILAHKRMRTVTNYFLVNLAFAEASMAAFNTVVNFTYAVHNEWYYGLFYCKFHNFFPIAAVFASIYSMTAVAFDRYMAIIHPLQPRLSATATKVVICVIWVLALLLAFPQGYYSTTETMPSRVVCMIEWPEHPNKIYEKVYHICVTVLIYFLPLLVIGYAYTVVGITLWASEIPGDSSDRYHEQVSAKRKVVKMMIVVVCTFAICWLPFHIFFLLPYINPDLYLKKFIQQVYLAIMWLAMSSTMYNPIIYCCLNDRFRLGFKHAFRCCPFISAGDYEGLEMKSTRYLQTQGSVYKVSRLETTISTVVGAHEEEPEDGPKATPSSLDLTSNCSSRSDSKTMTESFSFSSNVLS

`Cl.Cl.O=C(c1cc(C(F)(F)F)cc(C(F)(F)F)c1)N1CCN(CCCc2ccccn2)C[C@H]1Cc1c[nH]c2ccccc12` [4-(2), (2R)-1-[3,5-Bis(trifluoromethyl)benzoyl]-2-[(1H-indol-3-yl)methyl]-4-[3-(2-pyridyl)propyl]piperazine dihydrochloride] yielded a melting point of 80 to 100 °C. The “inhibition rate of emesis in the ferret” value with emesis in the ferret was found to be 100%.
`Cc1ccc(C[C@@H]2CN(Cc3cnn(CCN4CCOCC4)c3)CCN2C(=O)c2cc(C(F)(F)F)cc(C(F)(F)F)c2)cc1C.Cl.Cl` [Example 29, (2R)-1-[3,5-bis(trifluoromethyl)benzoyl]-2-(3,4-dimethylbenzyl)-4-[[1-(2-morpholinoethyl)-1H-pyrazol-4-yl]methyl]piperazine dihydrochloride] returned a melting point of 115 to 116 °C. Moreover, at h-NK1 receptors, the inhibition at 1 mg/kg was over 80%. Moreover, the “inhibition rate of emesis in the ferret” value in the series with emesis in the ferret is listed as 100%.
Turning to `CN(CCN1CCN(C(=O)c2cc(C(F)(F)F)cc(C(F)(F)F)c2)[C@H](Cc2c[nH]c3ccccc23)C1)Cc1cccnc1.Cl.Cl` [Example 41, (2R)-1-[3,5-Bis(trifluoromethyl)benzoyl]-2-[(1H-indol-3-yl)methyl]-4-[2-[N-methyl-N-(3-pyridylmethyl)amino]ethyl]piperazine dihydrochloride], the “inhibition rate of emesis in the ferret” value in the series on emesis in the ferret is 100%.

Broadly, the melting point is the temperature of the solid-liquid transition. The term inhibition denotes the relative decrease from the control value, in per cent.
